Assay: Change in tumor-free body weight (Example 3)
Assay type: in vivo, mice
Conditions: tumor-bearing, 2 and 4 mg/kg, vs tumor-bearing vehicle
Text: Experimental tumors were induced as described in Example 2.
No significant difference in tumor weight between the two doses of WFA was observed (p=0.65).

## CC1=C(CO)C(=O)O[C@@H]([C@@H](C)[C@H]2CC[C@H]3[C@@H]4C[C@H]5O[C@]56[C@@H](O)C=CC(=O)[C@]6(C)[C@H]4CC[C@]23C)C1 [WFA, (4β,5β,6β,22R)-4,27-Dihydroxy-5,6:22,26-diepoxyergosta-2,24-diene-1,26-dione]
  absolute change in tumor-free body weight: significant preservation of body weight loss

Reference: patent publication US20210121482A1, “WITHANOLIDES FOR THE TREATMENT OF CACHEXIA” (University of Louisville Research Foundation, Inc., priority 2019, published 2021)
